Assay results as given in patent US20070275935A1, “Estratriene Derivatives” (priority 2003, published 2007).

Key:
[1] = test system: Human airway smooth muscle (HASM) cells; assay: Thrombin-induced proliferation of human airway smooth muscle (HASM) cells, cell number after 48 h; assay type: cell-based; conditions: for IC50: Homo sapiens, negative log of the concentration that reduces the thrombin-induced proliferative response by 50%, pIC50 of 4.00 = inactive, read-out: HASM-Thr pIC50 (converted); for HASM- Thr pIC25 / HASM- Thr pIC75: two site model, thrombin-induced proliferation; for HASM- Thr pIC25: first phase (inhibition up to 50%); for HASM- Thr pIC75: second phase (inhibition up to 100%)
Experimental: Human airway smooth muscle (HASM) cells were cultured from macroscopically normal bronchi (0.5-2 cm diameter) obtained from lung resection or heart-lung transplant specimens provided by the Alfred Hospital (Melbourne) according to methods published in detail previously (Fernandes et al., 1999).
Approximately 0.1 g of smooth muscle was stripped from the wall of the bronchus for each cell culture. Dissected tissue was immersed in Dulbecco's modified Eagle's medium (DMEM) (Flow Laboratories, Scotland), supplemented with 100 U/mL penicillin G (CSL, Australia) and 100 ug/mL streptomycin (CSL, Australia). The tissue was rinsed in phosphate buffered saline (PBS; Oxoid, England) and the airway smooth muscle was chopped into 2 mm^3 pieces and digested for 2 hours in DMEM containing elastase (0.5 mg/mL: Worthington Biochemical, USA) followed by a 12 hour incubation in DMEM containing collagenase (1 mg/mL) (Worthington Biochemical, USA), at 37° C. with agitation.
The resulting cell suspension was centrifuged and washed three times in phosphate buffered saline (PBS). Following the last centrifugation step, the cells were resuspended in 25 mL of DMEM supplemented with L-glutamine (2 mM: Sigma, USA), penicillin G (100 U/mL), streptomycin (100 μg/mL), amphotericin B (2 μg/mL: Wellcome, UK) and heat-inactivated FCS (10% v/v: CSL, Australia) and seeded into 25 cm^2 culture flasks. The primary isolates were incubated for 7 to 14 days to reach confluence.
Cells were harvested weekly by 10 min exposure to trypsin (0.5%: CSL, Australia) and EDTA (1 mM in PBS: BDH, Australia) and passaged at a 1:3 ratio into 75 cm^2 flasks.
The activity of the compounds has been established in cell culture by exploring their effects on mitogen-induced increases in cell number. We investigated the effects of 2MEO and its analogues, 4NO and 4NOM, on the proliferation of HASM cells in response to the proliferative stimulus of either thrombin of basic fibroblast growth factor (bFGF). Cells were seeded onto 6-well plates at a density of 1.5×10^4 cells cm^2, made quiescent by removal of serum-containing media for 24 hours and then stimulated for 48 h with either thrombin (0.3 U/ml) or bFGF (300 pM). The test compounds were pre-incubated with HASM cells for 30 minutes before the addition of thrombin. At the end of the 48 hour incubation period, cells were detached from the culture plate by trypsin (0.5% w/v in PBS containing 1 mM EDTA), incubated for 5 minutes at ambient temperature in PBS containing 0.5% (w/v) trypan blue, washed twice (2% FCS in PBS), isolated by centrifugation (12,000×g, 5 min) and resuspended in 200 μl 2% FCS in PBS for counting in a haemocytometer chamber.
Data are expressed as a percentage of the cell number in vehicle treated wells and are presented as the mean and standard error of the mean.
The potency of the compounds in regulating thrombin-induced proliferation of human airway smooth muscle (HASM) was assessed in cells maintained in culture as described above. The potencies are presented as pIC50 values (Column A of Table 4) denoting the negative log of the concentration that reduces the proliferative response by 50%. […] When the single phase model was determined to be more appropriate, the values of pIC25 and pIC75 were not calculated or shown in the table.

[2] = test system: type II airway epithelial cell line, A549; assay: Proliferation of A549 cells in response to 5% FCS; assay type: cell-based, human; conditions: Homo sapiens, A549; proliferation in response to 5% FCS; pIC50 of 4.00 = inactive; read-out: A549 PIC50 (converted)
Experimental: The effects of 4NO were evaluated in a number of non-smooth muscle cell types including the type II airway epithelial cell line, A549 (ATCC accession number ATCC CCL-185 Lung carcinoma human) (FIG. 2); the human breast tumour cell line, MCF7, (ATTC accession number ATCC HTB-22 breast adenocarcinoma, human) which expresses the estrogen receptor (FIG. 3); and in bovine aortic endothelial cells (BAEC) (FIG. 4).
The effects of test compounds were examined on proliferation of A549 cells in response to 5% fetal calf serum (FCS). Analogues were pre-incubated with A549 cells for 30 min before the addition of FCS. The incubation continued for 48 h before cell enumeration. Data are expressed as a percentage of the cell number in vehicle treated wells and are presented as the mean and standard error of the mean. Similarly the effects of 2MEO and 4NO on proliferation of MCF7 in response to 5% FCS or epidermal growth factor (EGF, 300 pM) were examined, as were the effects of 2MEO and 4NO on proliferation of BAEC in response to 5% FCS. The incubation parameters were the same as described above and results are presented as the mean and standard error of the mean.
This assay was also used to evaluate the ability of other compounds to inhibit the proliferation of non-smooth muscle cells MCF7 and A549 (described above) in response to 5% FCS. The results of this assay are presented in Table 4 (columns G and H respectively). The potency of the compounds was considerably less in inhibiting proliferation of these cell lines than it was for HASM. These observations support the contention that there are cell type-specific targets for the actions of these compounds. Such assays may also be adopted to examine the effect of other disclosed compounds on these cells or on other non-smooth muscle cells of interest.

Estrogen Receptor (ER) = target: T1, Estrogen Receptor (ER) (Rattus norvegicus, UniProt P06211); assay: Estrogen receptor binding assay, 3H-estradiol displacement from rat uterine cytosol; conditions: 3H-estradiol displacement, cytosolic preparations of rat uterus; pIC50 of 4.00 = inactive; read-out: ER-RLB pIC50 (converted)
T1 construct: using rat uterine cytosol as a source of ER; from tissue; host or cells: rat uterus, cytosol fraction (30000 x g supernatant)
T1 sequence (P06211 1-600): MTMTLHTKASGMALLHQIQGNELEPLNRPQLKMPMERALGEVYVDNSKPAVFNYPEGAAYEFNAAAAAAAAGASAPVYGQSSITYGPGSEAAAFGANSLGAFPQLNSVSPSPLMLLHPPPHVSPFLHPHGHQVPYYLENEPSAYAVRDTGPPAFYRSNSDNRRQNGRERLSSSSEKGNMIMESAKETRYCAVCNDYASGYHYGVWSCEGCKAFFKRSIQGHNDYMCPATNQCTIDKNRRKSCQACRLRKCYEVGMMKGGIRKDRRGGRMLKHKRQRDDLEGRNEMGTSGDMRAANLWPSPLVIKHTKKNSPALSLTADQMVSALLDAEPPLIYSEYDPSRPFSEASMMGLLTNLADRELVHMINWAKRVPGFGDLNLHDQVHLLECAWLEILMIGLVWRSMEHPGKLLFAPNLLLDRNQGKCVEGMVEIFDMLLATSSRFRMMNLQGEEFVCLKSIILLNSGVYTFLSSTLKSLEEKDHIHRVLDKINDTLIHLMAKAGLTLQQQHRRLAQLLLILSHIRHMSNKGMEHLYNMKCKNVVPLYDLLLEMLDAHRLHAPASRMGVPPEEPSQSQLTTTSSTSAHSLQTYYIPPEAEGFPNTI
Experimental: Uteri (6-10 per batch) were isolated from Brown Norway rats (250-350g), washed free from blood in saline and homogenised in 10 mM Tris buffer (pH 7.4, 1.5 mM EDTA, 10% w/v glycerol, 1 mM phenylmethylsulfonylfluoride) using an Ultra Turrax homogeniser for 3 by 15 s bursts with intervals of 1 min on ice.
Nuclear material and cellular debris were removed by centrifugation at 750×g at 4° C. for 10 min (Sorvall RT7); the cytosol component was prepared by centrifugation at 30000×g for 120 min at 4° C. in a Beckman JM1 centrifuge. The cytosol was diluted to approximately 1 mg/ml protein (rat uterine extract) determined using the Bradford method (Biorad).
Separation of bound from free radioligand was achieved by the addition of 500 μL of dextran-coated charcoal (400 mg dextran clinical grade C and 2g of charcoal, Norit A in 100 mL of Tris buffer) and centrifugation at 4° C. in a Sorval RT7 at 2000×g for 10 min.

Compound	IC50 [1] [nM]	IC50 [2] [nM]	IC50 (Estrogen Receptor (ER)) [nM]	HASM- Thr pIC25 [1]	HASM- Thr pIC75 [1]
COc1cc2c(cc1O)/C(=N/OCc1ccccc1[N+](=O)[O-])C[C@@H]1[C@@H]2CC[C@]2(C)/C(=N/O)CC[C@@H]12 [CP-DM-3-117, 2-methoxy-6-(2-nitrobenzyloxy)iminoestrone-17-oxime]	6460	5130	–	–	–
COc1cc2c(cc1O)/C(=N/OCc1cccc(C(F)(F)F)c1)C[C@@H]1[C@@H]2CC[C@]2(C)/C(=N/O)CC[C@@H]12 [CP-DM-3-118, 2-methoxy-6-(3-trifluoromethylbenzyloxy)iminoestrone-17-oxime]	2950	–	20900	–	–
COc1cc2c(cc1O)/C(=N/OCc1ccc(OC(F)(F)F)cc1)C[C@@H]1[C@@H]2CC[C@]2(C)[C@@H](O)CC[C@@H]12 [CP-DM-4-64, 2-methoxy-6-(4-trifluoromethoxybenzyloxy)iminoestradiol]	2450	–	1580	6.56	4.81
C[C@]12CC[C@@H]3c4ccc(O)cc4/C(=N/OCc4cc(F)cc(F)c4)C[C@H]3[C@@H]1C[C@@H](O)[C@@H]2O [CP-DM-4-88, 6-(3,5-difluorobenzyloxy)iminoestriol]	15800	–	–	–	–
COc1cc2c(cc1O)/C(=N/OCc1cccc(C#N)c1)C[C@@H]1[C@@H]2CC[C@]2(C)/C(=N/O)CC[C@@H]12 [CP-DM-4-51, 2-methoxy-6-(3-cyanobenzyloxy)iminoestrone-17-oxime]	4370	–	34700	5.46	5.26
COc1cc2c(cc1O)/C(=N/OCc1ccc(C)cc1)C[C@@H]1[C@@H]2CC[C@]2(C)/C(=N/O)CC[C@@H]12 [CP-DM-4-76, 2-methoxy-6-(4-methylbenzyloxy)iminoestrone-17-oxime]	4270	–	–	–	–
COc1cccc(CO/N=C2\C[C@@H]3[C@H](CC[C@]4(C)/C(=N/O)CC[C@@H]34)c3cc(OC)c(O)cc32)c1 [CP-DM-4-66, 2-methoxy-6-(3-methoxybenzyloxy)iminoestrone-17-oxime]	10000	–	–	–	–
CO/N=C1\CC[C@H]2[C@@H]3C/C(=N\OCc4ccc([N+](=O)[O-])cc4)c4cc(O)c(OC)cc4[C@H]3CC[C@]12C [CP-DM-4-75, 6-(4-nitrobenzyloxy)imino-2-methoxyestrone-17-methyloxime]	2570	–	–	–	–
COc1cccc(CO/N=C2\C[C@@H]3[C@H](CC[C@]4(C)[C@@H](O)CC[C@@H]34)c3cc(OC)c(O)cc32)c1 [CP-DM-4-62, 2-methoxy-6-(3-methoxybenzyloxy)iminoestradiol]	2190	–	1000	5.69	5.63
COc1cc2c(cc1O)/C(=N/OCc1ccc(C#N)cc1)C[C@@H]1[C@@H]2CC[C@]2(C)[C@@H](O)CC[C@@H]12 [CP-DM-4-37, 6-(4-cyanobenzyloxy)imino-2-methoxyestradiol]	12900	–	6460	–	–
COc1cc2c(cc1O)/C(=N/OCc1ccncc1)C[C@@H]1[C@@H]2CC[C@]2(C)[C@@H](O)CC[C@@H]12 [CP-DM-4-16, 2-methoxy-6-(4-pyridylmethyloxy)iminoestradiol]	1450	–	–	6.57	5.19
C#C[C@]1(O)CC[C@H]2[C@@H]3C/C(=N\OCc4ccc([N+](=O)[O-])cc4)c4cc(O)ccc4[C@H]3CC[C@@]21C [CP-DM-4-89, 6-(4-nitrobenzyloxy)imino-17-ethinyl-estradiol]	–	–	5620	–	–
COc1cc2c(cc1O)/C(=N/OCc1ccccc1[N+](=O)[O-])C[C@@H]1[C@@H]2CC[C@]2(C)[C@@H](O)CC[C@@H]12 [CP-DM-3-124, 2-methoxy-6-(2-nitrobenzyloxy)iminoestradiol]	44.7	–	891	9.35	6.36
COc1cc2c(cc1O)/C(=N/OCc1cccc(OC(F)(F)F)c1)C[C@@H]1[C@@H]2CC[C@]2(C)/C(=N/O)CC[C@@H]12 [CP-DM-4-67, 2-methoxy-6-(3-trifluoromethoxybenzyloxy)iminoestrone-17-oxime]	10000	–	–	–	–
COc1cc2c(cc1O)/C(=N/OCc1cccc(OC(F)(F)F)c1)C[C@@H]1[C@@H]2CC[C@]2(C)[C@@H](O)CC[C@@H]12 [CP-DM-4-63, 2-methoxy-6-(3-trifluoromethoxybenzyloxy)iminoestradiol]	347	–	135	7.70	5.62
COc1cc2c(cc1O)/C(=N/OCc1cccc(C#N)c1)C[C@@H]1[C@@H]2CC[C@]2(C)[C@@H](O)CC[C@@H]12 [CP-DM-4-52, 2-methoxy-6-(3-cyanobenzyloxy)iminoestradiol]	955	–	398	–	–
